The supplement of paper PMC11451515

Columns and labels:
Settings in all cases: 48 h
P12-Ichikawa [1] = assay: AUC of viability dose-response curve (% viability x log10 dose units); higher = less sensitive
Summary of the method: (§1)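 Library compounds in DMSO were applied for 48 h at 37°C at 11 threefold doses (47 μM to 0.79 nM) to medium-adapted leukemia cells in 1536-well plates holding 500 or 1000 cells/well. Luminescence from CellTiter-Glo One was normalised plate by plate against DMSO and cell-free wells. Area under the curve came from trapezoidal integration of a log-logistic fit, after scaling curves that rose above full viability and discarding those that failed quality control. The fit had four parameters and used log10 doses.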

NOMO1 [2] = assay: as above
Summary of the method: as §1

SEM cells [3] = assay: as above
Summary of the method: as §1

SEM cells [4] = assay: cell viability relative to DMSO control; higher = less cytotoxic
Summary of the method: (§2)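 Leukemia cells (NOMO1 or SEM, 500 cells/well; P12-Ichikawa, 1000 cells/well) were seeded in 5 μl in 1536-well plates after at least four passages of adaptation to each medium. They received library compounds in DMSO by pin dosing, 11 threefold points from 47 μM to 0.79 nM. Luminescence with CellTiter-Glo One was read after 48 h at 37°C. Viability is stated per plate relative to DMSO wells, with cell-free wells as background.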

P12-Ichikawa [5] = assay: as above
Summary of the method: as §2

NOMO1 [6] = assay: as above
Summary of the method: as §2

CC1=CC=C(C=C1)\C2=N\C3=CC=C(Cl)C=C3OC2
AUC of viability dose-response curve
Settings | NOMO1 [2] | P12-Ichikawa [1] | SEM cells [3]
HPLM + 10% dialyzed FBS | 451 | 439 | 427
RPMI 5 mM glucose + 10% FBS | 439 | 424 | 418
RPMI 5 mM glucose + 10% dialyzed FBS | 457 | 440 | 392

COc1ccccc1N1CCN(CCN(C(=O)C2CCCCC2)c2ccccn2)CC1
cell viability [%], SEM cells [4]
Settings | HPLM + 10% dialyzed FBS | RPMI 5 mM glucose + 10% FBS
0.000781 µM | 97.9 | 104
0.00234 µM | 121 | 111
0.00702 µM | 122 | 131
0.0211 µM | 112 | 123
0.0632 µM | 122 | 124
0.19 µM | 120 | 135
0.569 µM | 137 | 132
1.71 µM | 133 | 131
5.12 µM | 127 | 130
15.4 µM | 122 | 111
46.1 µM | 122 | 126

AUC of viability dose-response curve
Settings | NOMO1 [2] | P12-Ichikawa [1] | SEM cells [3]
HPLM + 10% dialyzed FBS | 466 | 470 | 468
RPMI 5 mM glucose + 10% FBS | 469 | 472 | 467
RPMI 5 mM glucose + 10% dialyzed FBS | 468 | 473 | 472

CCN(CC)C(=O)C1=CC=C(C=C1)C/2=C/C3(CCNCC3)OC4=CC=CC(=C24)O
AUC of viability dose-response curve
Settings | NOMO1 [2] | P12-Ichikawa [1] | SEM cells [3]
HPLM + 10% dialyzed FBS | 287 | 459 | 472
RPMI 5 mM glucose + 10% FBS | 329 | 449 | 464
RPMI 5 mM glucose + 10% dialyzed FBS | 345 | 449 | 464

CN(C)/N=N/c1nc[nH]c1C(N)=O
SEM cells [4], HPLM + 10% dialyzed FBS
Settings | cell viability [%]
0.000781 µM | 121
0.00234 µM | 122
0.00702 µM | 117
0.0211 µM | 126
0.0632 µM | 125
0.19 µM | 120
0.569 µM | 128
1.71 µM | 119
5.12 µM | 123
15.4 µM | 106
46.1 µM | 105

AUC of viability dose-response curve
Settings | NOMO1 [2] | P12-Ichikawa [1] | SEM cells [3]
HPLM + 10% dialyzed FBS | 416 | 422 | 467
RPMI 5 mM glucose + 10% FBS | 435 | 410 | 462
RPMI 5 mM glucose + 10% dialyzed FBS | 392 | 374 | 307

Cn1cc(-c2ccc(F)c(C(F)(F)F)c2)nc1C1CCN(c2ncnc3[nH]ncc23)CC1
AUC of viability dose-response curve
Settings | NOMO1 [2] | P12-Ichikawa [1] | SEM cells [3]
HPLM + 10% dialyzed FBS | 447 | 463 | 441
RPMI 5 mM glucose + 10% FBS | 447 | 444 | 461
RPMI 5 mM glucose + 10% dialyzed FBS | 435 | 446 | 449

NC(=O)OCC(COC(N)=O)c1ccccc1
cell viability [%]
Settings | HPLM + 10% dialyzed FBS | RPMI 5 mM glucose + 10% FBS | RPMI 5 mM glucose + 10% dialyzed FBS
P12-Ichikawa [5], 0.000781 µM | – | 118 | –
P12-Ichikawa [5], 0.00234 µM | – | 123 | –
P12-Ichikawa [5], 0.00702 µM | – | 120 | –
P12-Ichikawa [5], 0.0211 µM | – | 118 | –
P12-Ichikawa [5], 0.0632 µM | – | 126 | –
P12-Ichikawa [5], 0.19 µM | – | 113 | –
P12-Ichikawa [5], 0.569 µM | – | 136 | –
P12-Ichikawa [5], 1.71 µM | – | 115 | –
P12-Ichikawa [5], 5.12 µM | – | 116 | –
P12-Ichikawa [5], 15.4 µM | – | 113 | –
P12-Ichikawa [5], 46.1 µM | – | 108 | –
SEM cells [4], 0.000781 µM | 91 | 119 | 99.7
SEM cells [4], 0.00234 µM | 99.6 | 121 | 107
SEM cells [4], 0.00702 µM | 102 | 104 | 99.4
SEM cells [4], 0.0211 µM | 87.3 | 119 | 115
SEM cells [4], 0.0632 µM | 101 | 113 | 111
SEM cells [4], 0.19 µM | 86.1 | 113 | 99.9
SEM cells [4], 0.569 µM | 103 | 102 | 109
SEM cells [4], 1.71 µM | 104 | 115 | 99
SEM cells [4], 5.12 µM | 92.8 | 99.8 | 97.9
SEM cells [4], 15.4 µM | 91 | 117 | 101
SEM cells [4], 46.1 µM | 90.6 | 105 | 105

AUC of viability dose-response curve
Settings | NOMO1 [2] | P12-Ichikawa [1] | SEM cells [3]
HPLM + 10% dialyzed FBS | 434 | 465 | 455
RPMI 5 mM glucose + 10% FBS | 465 | 460 | 448
RPMI 5 mM glucose + 10% dialyzed FBS | 456 | 465 | 471

CC[S+](=O)([O-])N1CC(CC#N)(n2cc(-c3ncnc4[nH]ccc34)cn2)C1
AUC of viability dose-response curve
Settings | NOMO1 [2] | P12-Ichikawa [1] | SEM cells [3]
HPLM + 10% dialyzed FBS | 441 | 452 | 449
RPMI 5 mM glucose + 10% FBS | 451 | 454 | 457
RPMI 5 mM glucose + 10% dialyzed FBS | 471 | 443 | 450

C[C@H]1O[C@H](C[C@H](O)[C@@H]1O)O[C@H]2[C@@H](O)C[C@@H](O[C@@H]2C)O[C@H]3[C@@H](O)C[C@@H](O[C@@H]3C)O[C@H]4CC[C@@]5(C)[C@H](CC[C@@H]6[C@@H]5C[C@@H](O)[C@]7(C)[C@H](CC[C@]67O)C/8=C/C(=O)OC8)C4
cell viability [%]
Settings | NOMO1 [6] | P12-Ichikawa [5] | SEM cells [4]
HPLM + 10% dialyzed FBS, 0.000781 µM | 120 | 116 | 117
HPLM + 10% dialyzed FBS, 0.00234 µM | 119 | 128 | 106
HPLM + 10% dialyzed FBS, 0.00702 µM | 136 | 123 | 122
HPLM + 10% dialyzed FBS, 0.0211 µM | 138 | 111 | 123
HPLM + 10% dialyzed FBS, 0.0632 µM | 97.2 | 33.5 | 30.4
HPLM + 10% dialyzed FBS, 0.19 µM | 25.3 | 13.3 | 15.2
HPLM + 10% dialyzed FBS, 0.569 µM | 12.2 | 12.7 | 11
HPLM + 10% dialyzed FBS, 1.71 µM | 8.48 | 12.8 | 7.74
HPLM + 10% dialyzed FBS, 5.12 µM | 8.1 | 14.3 | 7.71
HPLM + 10% dialyzed FBS, 15.4 µM | 7.39 | 20.5 | 8.32
HPLM + 10% dialyzed FBS, 46.1 µM | 5.28 | 17.2 | 6.4
RPMI 5 mM glucose + 10% FBS, 0.000781 µM | 113 | 115 | –
RPMI 5 mM glucose + 10% FBS, 0.00234 µM | 112 | 123 | –
RPMI 5 mM glucose + 10% FBS, 0.00702 µM | 120 | 124 | –
RPMI 5 mM glucose + 10% FBS, 0.0211 µM | 107 | 110 | –
RPMI 5 mM glucose + 10% FBS, 0.0632 µM | 107 | 86.5 | –
RPMI 5 mM glucose + 10% FBS, 0.19 µM | 95.8 | 58.1 | –
RPMI 5 mM glucose + 10% FBS, 0.569 µM | 21.9 | 12.3 | –
RPMI 5 mM glucose + 10% FBS, 1.71 µM | 9.57 | 10.4 | –
RPMI 5 mM glucose + 10% FBS, 5.12 µM | 11 | 9.93 | –
RPMI 5 mM glucose + 10% FBS, 15.4 µM | 12.1 | 12.4 | –
RPMI 5 mM glucose + 10% FBS, 46.1 µM | 9.59 | 11.7 | –
RPMI 5 mM glucose + 10% dialyzed FBS, 0.000781 µM | 120 | 113 | –
RPMI 5 mM glucose + 10% dialyzed FBS, 0.00234 µM | 121 | 111 | –
RPMI 5 mM glucose + 10% dialyzed FBS, 0.00702 µM | 109 | 117 | –
RPMI 5 mM glucose + 10% dialyzed FBS, 0.0211 µM | 115 | 110 | –
RPMI 5 mM glucose + 10% dialyzed FBS, 0.0632 µM | 114 | 76.4 | –
RPMI 5 mM glucose + 10% dialyzed FBS, 0.19 µM | 57.2 | 32.5 | –
RPMI 5 mM glucose + 10% dialyzed FBS, 0.569 µM | 13.5 | 13.3 | –
RPMI 5 mM glucose + 10% dialyzed FBS, 1.71 µM | 7.93 | 10.7 | –
RPMI 5 mM glucose + 10% dialyzed FBS, 5.12 µM | 7.1 | 8.02 | –
RPMI 5 mM glucose + 10% dialyzed FBS, 15.4 µM | 7.81 | 8.92 | –
RPMI 5 mM glucose + 10% dialyzed FBS, 46.1 µM | 7.62 | 6.92 | –

AUC of viability dose-response curve
Settings | NOMO1 [2] | P12-Ichikawa [1] | SEM cells [3]
HPLM + 10% dialyzed FBS | 226 | 208 | 200
RPMI 5 mM glucose + 10% FBS | 280 | 242 | 250
RPMI 5 mM glucose + 10% dialyzed FBS | 253 | 227 | 239
